Measured values: patent publication US6897237B2, “MMP-12 inhibitors” (Shionogi & Co. Ltd., priority 2000, dated 2005)
pIC50: −log10 of the molar value.

Columns and labels:
Type in all cases: biochemical
Settings in all cases: substrate MOCAc-Pro-Leu-Gly-Leu-A2Pr(DNP)-Ala-Arg-NH2
[1] = target: T1, MMP-9 (Homo sapiens, UniProt P14780); assay: Assay for inhibitory activities on MMPs (fluorogenic peptide substrate): MMP-9
T1 construct: endogenous in cells; host or cells: HT1080 human fibrosarcoma cells, TPA-stimulated; purified in house from conditioned medium
T1 sequence (P14780 107-707 limits assumed): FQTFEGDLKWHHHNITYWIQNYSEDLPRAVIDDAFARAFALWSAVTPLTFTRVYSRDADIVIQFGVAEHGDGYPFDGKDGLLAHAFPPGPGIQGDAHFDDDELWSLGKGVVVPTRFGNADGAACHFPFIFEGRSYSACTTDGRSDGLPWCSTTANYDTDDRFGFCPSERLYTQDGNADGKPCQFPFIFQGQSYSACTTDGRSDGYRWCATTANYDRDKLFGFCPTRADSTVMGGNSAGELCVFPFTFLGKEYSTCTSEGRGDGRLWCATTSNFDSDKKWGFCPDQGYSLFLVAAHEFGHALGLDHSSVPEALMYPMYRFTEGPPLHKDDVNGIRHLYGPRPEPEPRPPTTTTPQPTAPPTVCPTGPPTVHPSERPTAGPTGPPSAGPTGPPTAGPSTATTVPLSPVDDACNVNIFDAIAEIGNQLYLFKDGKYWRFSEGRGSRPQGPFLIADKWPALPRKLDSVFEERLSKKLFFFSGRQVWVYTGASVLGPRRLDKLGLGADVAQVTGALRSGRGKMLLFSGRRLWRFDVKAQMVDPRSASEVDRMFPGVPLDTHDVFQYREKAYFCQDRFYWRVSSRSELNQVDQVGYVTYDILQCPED
Source text: MMP-9 was isolated and purified by using a combination of procedures described in previous reports as follows. Yasunori Okada, Yukio Gonoji, Katsumi Naka, Katsuro Tomita, Isao Nakanishi, Kazushi Iwata, Kyoko Yamashita, and Taro Hayakawa: Matrix metalloproteinase 9 (92-kDa gelatinase/type IV collagenase) from HT1080 human fibrosarcoma cells. Purification and activation of the precursor and enzymic properties. J. Biol. Chem., 267 (1.992) 21712-21719. Yasunori Okada, Tatsuhisa Morodomi, Jan J, Enghild, Ko Suzuki, Atsushi Yasui, Isao Nakanishi, Guy Salvesen and Hideaki Nagase: Matrix metalloproteinase 2 from human rheumatoid synovial fibroblasts. Purification and activation of the precursor and enzymic properties. Eur. J. Biochem. 194 (1990) 721-730. Robin V Ward, Rosalind M Hembry, John J Reynolds and Gillian Murphy: The purification of tissue inhibitor of metalloproteinase-2 from its 72 kDa progelatinase complex. Biochem. J. 278 (1991) 179-187.
Briefly, human fibrosarcoma ATCC HT1080 cell line was cultured to confluent in Dulbecco's Modified Medium (DMEM) containing 10% fetal-calf serum at 37° C. for 48 hours. Subsequently, the medium of confluent culture was changed to serum-free DMEM medium. To obtain MMP-9, Phorbol-12-myristate-13-acetate (TPA) must be added to this serum-free DMEM medium at a concentration of 50 ng/ml. The TPA treated medium was centrifuged at 3000 rpm for 15 min and the supernatant was concentrated to 450 ml by a Toyo-Roshi UP-20 apparatus with an ultrafiltration membrane. Then, proMMP-9 in this concentrated solution was purified by using columns of Gelatin-Sepharose and Concanavalin A-Sepharose. The pool containing proMMP-9 was dialyzed, concentrated (Toyo-Roshi UP-20) and applied to columns of Sephacryl S-200 and Green A matrix for the separation from TIMPs. The obtained proMMP-9 fraction was activated by TPCK-Trypsin (final conc. […] reaction mix.).
(§1) The enzymatic activity on MMPs was analyzed by the method described in “C. Graham Knight, Frances Willenbrock and Gillian Murphy: A novel coumarin-labelled peptide for sensitive continuous assays of the matrix metalloproteinases: FEBS LETT., 296, (1992), 263-266”. The substrate: MOCAc-Pro-Leu-Gly-Leu-A2Pr(DNP)-Ala-Arg-NH2 was purchased from Peptide Institute, Inc., Osaka, Japan. The measurement of the inhibitory activities (IC50) was carried out by the following four methods;
(§2) (A) Reaction with substrate, enzyme (MMPs) and inhibitor
(§3) (B) Reaction with substrate and inhibitor, without enzyme
(§4) (C) Reaction with substrate and enzyme (MMPs), without inhibitor
(§5) (D) Reaction with substrate only
(§6) IC50 values were calculated by using the following formula and each fluorescence values of above four methods (A to D).
(§7) % inhibition={1−(A−B)/(C−D)}×100
(§8) IC50 means the concentration required to inhibit 50% of the enzyme activity.

[2] = target: T2, MMP-8 catalytic domain (Homo sapiens, UniProt P22894); assay: Assay for inhibitory activities on MMPs (fluorogenic peptide substrate): MMP-8
T2 construct: catalytic domain (^99Phe˜^262Gly); His-tag; enterokinase digestion-site; made in house; host or cells: Escherichia coli
T2 sequence (P22894 99-262): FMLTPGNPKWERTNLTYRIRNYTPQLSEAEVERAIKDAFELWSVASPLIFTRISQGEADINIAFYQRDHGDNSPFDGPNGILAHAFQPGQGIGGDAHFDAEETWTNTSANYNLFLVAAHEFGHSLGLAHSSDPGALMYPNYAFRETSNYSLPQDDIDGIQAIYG
Source text: In regard to MMP-8, catalytic domain (^99Phe˜^262Gly) was amplified with PCR using commercial available Human Bone Marrow cDNA. This was cloned in Escherichia. coli expression vector pTrc99AHE inserted with His-tag sequence and enterokinase digestion-site, induced and expressed by IPTG (Isopropyl-β-D-thiogalactopyranoside) and expressed in a insoluble fraction (Than F. Ho, M. Walid Qoronfleh, Robert C. Wahl, Trica A. Pulvino, Karen J. Vavra, Joe Falvo, Tracey M. Banks, Patricia G. Brake and Richard B. Ciccarelli: Gene expression, purification and characterization of recombinant human neutrophil collagenase. Gene 146, (1994) 297-301, Prepared by the a improved method of this material). Isolation of MMP-8 from insoluble fraction was carried out by dissolving in modifier (6M urea) by a usual method and purification with metal chelate chromatography. And then removing modifier (6M urea) with dialysis and refolding of the enzyme spontaneously gave activated MMP-8.
as §1, §2, §3, §4, §5, §6, §7, §8

[3] = target: T3, MMP-12 catalytic domain (Homo sapiens, UniProt P39900); assay: Assay for inhibitory activities on MMPs (fluorogenic peptide substrate): MMP-12
T3 construct: catalytic domain(^100Phe˜^263Gly); His-tag; enterokinase digestion-site; made in house; host or cells: Escherichia coli
T3 sequence (P39900 100-263): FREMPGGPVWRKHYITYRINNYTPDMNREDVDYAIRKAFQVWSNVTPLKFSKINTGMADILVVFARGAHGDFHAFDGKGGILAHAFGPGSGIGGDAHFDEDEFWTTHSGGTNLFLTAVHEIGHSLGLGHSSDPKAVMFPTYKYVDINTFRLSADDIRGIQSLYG
Method: In regard to MMP-12, catalytic domain(^100Phe˜^263Gly) was amplified with RT-PCR from Human Placenta Total RNA. This was cloned in Escherichia coli expression vector pTrc99AHE inserted with His-tag sequence and enterokinase digestion-site, induced and expressed by IPTG (Isopropyl-β-D-thiogalactopyranoside) and expressed in a insoluble fraction. Isolation of MMP-12 from a insoluble fraction was carried out by dissolving in modifier (6M urea) by a usual method and purification with metal chelate chromatography (Ni Chelateing Sepharose). And then removing modifier (6M urea) with dialysis and refolding of the enzyme spontaneously gave activated MMP-12.
as §1, §2, §3, §4, §5, §6, §7, §8

## C[C@@H](NS(=O)(=O)c1ccc(C#Cc2ccc3ccccc3c2)s1)C(=O)O [Compound B-6]
[1]
  pIC50: 6.08
[2]
  pIC50: 5.68
[3]
  pIC50: 7.64
